Test systems include M14 melanoma; SF-295 CNS; UO-31 renal; EKVX NSCLC; NCI-H460 lung; SF-268 CNS; HT29 colon; OVCAR-8 ovarian; SNB-75 CNS; SR leukemia; NCI-H23 lung; LOX IMVI melanoma.
What all share (assay): NCI anticancer screen, dose series, 48 h

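Exposure lasted 48 hours, with cells grown in 96-well plates and compounds tested at five concentrations. TGI denotes the concentration required for complete inhibition of growth.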 Bounds are passed on as bounds.

For `NC1=NC(OCC2(CO)CCC2)C=C(NCC2(CO)CCC2)N1` (configuration not stated), the TGI with M14 melanoma, with SF-295 CNS, in the assay on UO-31 renal, with EKVX NSCLC, with NCI-H460 lung and in the assay on SF-268 CNS was more than 100 µM each time. Further, the TGI in the assay with HT29 colon, with OVCAR-8 ovarian, with SNB-75 CNS, in the assay with SR leukemia, with NCI-H23 lung and in the assay on LOX IMVI melanoma was more than 100 µM each time.
For the molecule `O=S1(=O)CCN(Cc2ccccc2)/C1=N\S(=O)(=O)c1ccc(Cl)cc1`, the TGI in the assay on M14 melanoma was 32.9 µM; in the assay with SF-295 CNS, more than 100 µM; in the assay with UO-31 renal, 32.5 µM; with EKVX NSCLC, 28.5 µM; with NCI-H460 lung, 48 µM; with SF-268 CNS, 31.4 µM. Further, the TGI was determined as 32.6 µM in the assay with HT29 colon; 32.9 µM with OVCAR-8 ovarian; 50.9 µM with SNB-75 CNS; 59.9 µM in the assay with SR leukemia; 35.3 µM with NCI-H23 lung; 33.5 µM in the assay on LOX IMVI melanoma.
For `N=C1C(=N)c2ccccc2-c2ccccc21`, the TGI stood at 2.36 µM in the assay with M14 melanoma; 2.98 µM in the assay on SF-295 CNS; 2.96 µM in the assay on UO-31 renal; 3.62 µM in the assay on EKVX NSCLC; 2.88 µM in the assay with NCI-H460 lung; 4.16 µM in the assay with SF-268 CNS. Besides, the TGI is 3.81 µM in the assay on HT29 colon; 3.25 µM with SNB-75 CNS; 6.46 µM with SR leukemia; 1.92 µM in the assay on NCI-H23 lung; 1.02 µM in the assay with LOX IMVI melanoma.
On to `CC1[C@@H](OCc2ccccc2)COC(=O)N1Cc1ccccc1` (some centres not stated), for which the TGI in the assay on M14 melanoma, with SF-295 CNS, in the assay on UO-31 renal, in the assay on EKVX NSCLC, in the assay with SF-268 CNS and with HT29 colon was more than 100 µM throughout. For the same molecule, the TGI in the assay on OVCAR-8 ovarian, in the assay on SNB-75 CNS, in the assay with SR leukemia, in the assay on NCI-H23 lung and in the assay with LOX IMVI melanoma was more than 100 µM throughout.
Take `CC1(C)OCC(C2OC(N3O[C@H](CI)C[C@@H]3c3ccccc3)C3OC(C)(C)OC23)O1` (some centres not stated): the TGI with M14 melanoma, with SF-295 CNS, with UO-31 renal, in the assay with EKVX NSCLC, with NCI-H460 lung and in the assay with SF-268 CNS was more than 100 µM throughout. The TGI in the assay with HT29 colon, with SNB-75 CNS, with SR leukemia, with NCI-H23 lung and in the assay on LOX IMVI melanoma was more than 100 µM throughout.
For `CC(=O)O[C@H]1C(=O)[C@@]2(C)[C@H]([C@H](OC(=O)C3CCCCC3)[C@]3(O)C[C@H](OC(=O)[C@H](O)[C@@H](NC(=O)C4CCCCC4)C4CCCCC4)C(C)=C1C3(C)C)[C@]1(OC(C)=O)CO[C@@H]1C[C@@H]2O`, the TGI with M14 melanoma was determined as 1.2 µM; with SF-295 CNS, 0.176 µM; in the assay on UO-31 renal, 6.23 µM; in the assay with EKVX NSCLC, 25 µM; with NCI-H460 lung it was 3.87 µM; with SF-268 CNS, 8.14 µM. In addition, the TGI came to 5.12 µM in the assay on OVCAR-8 ovarian; 1.12 µM with SNB-75 CNS; 9.67 µM in the assay with SR leukemia; 0.438 µM with NCI-H23 lung; 5.03 µM in the assay on LOX IMVI melanoma.
As for `CC1=NN(C(=O)Cc2ccccc2)C(=O)/C1=C\C=C\c1ccccc1`, the TGI in the assay on M14 melanoma, in the assay with SF-295 CNS, in the assay on UO-31 renal, in the assay on EKVX NSCLC, with SF-268 CNS and with HT29 colon was more than 100 µM in each case. Moreover, the TGI with OVCAR-8 ovarian, with SNB-75 CNS, in the assay with SR leukemia, in the assay on NCI-H23 lung and in the assay with LOX IMVI melanoma was more than 100 µM in each case.
For `O=c1c2cccnc2nc2ccc3c[nH][nH]c3c12`, the TGI in the assay with M14 melanoma, with SF-295 CNS, in the assay with EKVX NSCLC, with NCI-H460 lung, with SF-268 CNS and in the assay with HT29 colon was more than 10 µM each time. The TGI was more than 10 µM with OVCAR-8 ovarian; more than 10 µM in the assay on SNB-75 CNS; 9.14 µM in the assay on SR leukemia; more than 10 µM in the assay on NCI-H23 lung; more than 10 µM in the assay with LOX IMVI melanoma.
On to `CSc1cc(Cl)c(C)cc1S(=O)(=O)NC(=O)NNc1ccc(F)c(Cl)c1`, for which the TGI with M14 melanoma, in the assay on SF-295 CNS, in the assay with EKVX NSCLC, in the assay with NCI-H460 lung, in the assay with SF-268 CNS and in the assay on HT29 colon was more than 100 µM in each case. For the same molecule, the TGI with OVCAR-8 ovarian, with SNB-75 CNS, in the assay with SR leukemia and with LOX IMVI melanoma was more than 100 µM throughout.
As to `O=[N+]([O-])C(=C(N1CCOCC1)N1CCOCC1)/C(Cl)=C(\Cl)[N+](=O)[O-]`, the TGI was found to be 22.1 µM in the assay on M14 melanoma; 36.4 µM with SF-295 CNS; 18 µM in the assay on UO-31 renal; 23.2 µM with EKVX NSCLC; 70.7 µM with NCI-H460 lung; 22.9 µM with SF-268 CNS. For the same molecule, the TGI in the assay on HT29 colon was 8.26 µM; with SNB-75 CNS, 34.5 µM; in the assay on SR leukemia it was more than 100 µM; in the assay with NCI-H23 lung, 9.29 µM; in the assay on LOX IMVI melanoma, 5.19 µM.
Take `S=C(Nc1cccc(Cl)c1)Nc1ccccn1`: the TGI with M14 melanoma, in the assay with SF-295 CNS, in the assay on UO-31 renal, in the assay with EKVX NSCLC, in the assay on NCI-H460 lung and in the assay with SF-268 CNS was more than 100 µM each time. In addition, the TGI in the assay with HT29 colon, in the assay on OVCAR-8 ovarian, in the assay on SNB-75 CNS, in the assay with SR leukemia and with LOX IMVI melanoma was more than 100 µM in each case.

The values above are taken from PubChem BioAssay (NCI).
